These are literature values, as cited in patent US6703034B2, “Neem oil microemulsion without cosurfactants or alcohols and a process to form the same” (University of Florida, priority 2000, dated 2004).

One series relates to certain insects. To be noted: quantities as low as.
The subject of a further series is Insects. To be noted: treated during larval and pupal stages.

The structures appear in SMILES notation.

In the case of `C/C=C(\C)C(=O)O[C@H]1C[C@@H](OC(C)=O)[C@@]2(C(=O)OC)CO[C@H]3[C@@H](O)[C@@](C)([C@]45O[C@@]4(C)[C@H]4C[C@@H]5O[C@@H]5OC=C[C@@]54O)[C@H]4[C@]1(CO[C@]4(O)C(=O)OC)[C@@H]32` [azadirachtin], in the series on certain insects, the “quantity at which potent (repels certain insects)” value was 1 ppm. For the same compound, in the series with Insects, the “time to death of treated insects” value was 3 to 14 days.
